Read-outs that look alike come from different tables or passages of the source.
Key:
[1] = biological target: SARS-CoV-2 M^pro (Severe acute respiratory syndrome coronavirus 2 (2019-nCoV) (SARS-CoV-2), UniProt P0DTD1); experiment: biochemical
[2] = tested on: SARS-CoV-2; experiment: microbe, parasite or virus in culture; assay type: cell-based
[3] = in vitro; details: African green monkey
[4] = tested on: Vero E6 cells; experiment: Cytotoxicity in Vero E6 cells (neutral red uptake); details: read-out: CC50 in Vero E6 cells
[5] = read-out: SARS-COV-2 main protease enzymatic inhibition IC50
[6] = read-out: IC50 against SARS-CoV-2 M^pro
[7] = Severe acute respiratory syndrome coronavirus 2, Vero C1008; Vero E6 cells, immunofluorescence assay; read-out: SARS-CoV-2 antiviral assay EC50
[8] = Severe acute respiratory syndrome coronavirus 2, Vero C1008; read-out: SARS-COV-2 antiviral activity using immunofluorescence assay EC50
[9] = Severe acute respiratory syndrome coronavirus 2, Vero C1008; read-out: antiviral EC50 against SARS-CoV-2 in Vero E6 cells
[10] = SARS-COV-2 main protease enzymatic inhibition IC50

SMILES: CC(C)NC(=O)C(c1cccnc1)N(C(=O)c1ccco1)c1ccc(C(C)(C)C)cc1 (stereo not drawn) [Jun8-88-1]
- IC50 [1, 5]: 5.37 µM

SMILES: C[C@H](NC(=O)C(c1cccnc1)N(C(=O)c1ccco1)c1ccc(Cc2ccccc2)cc1)c1ccccc1 (stereo partly drawn) [Jun8-92-4]
- IC50 [1, 5]: 35.1 µM

SMILES: C[C@H](NC(=O)C(c1cccnc1)N(C(=O)c1ccco1)c1ccc([Si](C)(C)C)cc1)c1ccccc1 (stereo partly drawn) [Jun8-75-2]
- IC50 [1, 5]: 1.97 µM
- EC50 ([2]; Severe acute respiratory syndrome coronavirus 2, Vero C1008, read-out: SARS-COV-2 antiviral activity using immunofluorescence assay EC50): 8.84 µM

SMILES: C[C@H](NC(=O)[C@H](c1cccnc1)N(C(=O)C(Br)(Br)Br)c1ccc(-c2ccccc2)cc1)c1ccccc1 [Jun9-88-6S, N-([1,1′-biphenyl]-4-yl)-2,2,2-tribromo-N-((S)-2-oxo-2-(((S)-1-phenylethyl)amino)-1-(pyridin-3-yl)ethyl)acetamide]
- IC50 [1, 6]: 7.16 µM
- CC50 at 5 days ([3]; CC50 in Vero E6 cells): 5.99 µM

SMILES: O=C(NCCCc1ccccc1)C(c1cccnc1)N(C(=O)c1ccco1)c1ccc(-c2ccccc2)cc1 (stereo not drawn) [Jun9-12-2]
- IC50 [1, 5]: 1.06 µM
- Selectivity index SI CC50/EC50 [2]: >98.0
- EC50 [2, 7]: 2.04 ± 1.08 µM
- EC50 [2, 8]: 2.13 µM
- EC50 [2, 9]: 0.82 to 4.54 µM
- CC50 at 5 days ([3]; Vero E6 Cytotoxicity CC50 (μM)): > 200 µM
- CC50 [4]: > 100 µM

SMILES: C[C@H](NC(=O)C(c1cnccn1)N(C(=O)c1ccco1)c1ccc(-c2ccccc2)cc1)c1ccccc1 (stereo partly drawn) [Jun9-4-4]
- IC50 [1, 6]: 0.28 ± 0.07 µM
- Selectivity index SI CC50/EC50 [2]: >243.9
- EC50 [2, 7]: 0.82 ± 0.56 µM
- EC50 [2, 8]: 1.43 µM
- EC50 [2, 9]: 0.82 to 4.54 µM
- CC50 at 5 days ([3]; Vero E6 Cytotoxicity CC50 (μM)): > 200 µM
- CC50 [4]: > 100 µM

SMILES: C[C@H](NC(=O)C(c1cccnc1)N(C(=O)c1ccco1)c1ccc(-c2ccccc2)cc1)c1ccccc1 (single isomer, unassigned) [Jun8-76-3B]
- EC50 ([1]; SARS-COV-2 main protease enzymatic inhibition (separated diastereomers, printed as EC50)): 1.35 µM
- EC50 [2, 8]: 2.97 µM

SMILES: COc1ccc(NC(=O)C(c2cccnc2)N(C(=O)c2ccco2)c2ccc(C(C)(C)C)cc2)cc1 (stereo not drawn) [Jun9-88-4]
- IC50 [1, 5]: 7.49 µM

SMILES: O=C(NCC(c1ccccc1)c1ccccc1)C(c1cccnc1)N(C(=O)c1ccco1)c1ccc(-c2ccccc2)cc1 (stereo not drawn) [Jun9-5-3]
- IC50 [1, 5]: 1.48 µM

SMILES: C[C@H](NC(=O)C(c1cccnc1)N(C(=O)c1ccco1)c1ccc(C2CCCCC2)cc1)c1ccccc1 (stereo partly drawn) [Jun8-66-1]
- IC50 [1, 5]: 0.51 µM

SMILES: C[C@H](NC(=O)C(c1cccnc1)N(C(=O)c1ccco1)c1ccc(-c2ccco2)cc1)c1ccccc1 (stereo partly drawn) [Jun8-91-5]
- IC50 [1, 5]: 2.54 µM

SMILES: C[C@H](NC(=O)[C@H](c1cccnc1)N(C(=O)C(Cl)Cl)c1ccc(-c2ccccc2)cc1)c1ccc(Br)cc1 [Jun9-90-3S, N-([1,1′-biphenyl]-4-yl)-N-((S)-2-(((S)-1-(4-bromophenyl)ethyl)amino)-2-oxo-1-(pyridin-3-yl)ethyl)-2,2-dichloroacetamide]
- IC50 ([1]; IC50 against SARS-CoV-2 M^pro): > 20 µM

SMILES: C[C@H](NC(=O)C(c1cccnc1)N(C(=O)c1c[nH]cn1)c1ccc(-c2ccccc2)cc1)c1ccccc1 (stereo partly drawn) [Jun8-90-3]
- IC50 ([1]; read-out: SARS-CoV-2 M^pro IC50): 0.96 ± 0.09 µM
- EC50 [2, 9]: 0.82 to 4.54 µM
- CC50 at 5 days ([3]; Vero E6 Cytotoxicity CC50 (μM)): 129 ± 25.1 µM
- CC50 [4]: > 100 µM

SMILES: C[C@H](NC(=O)C(c1cccnc1)N(C(=O)c1ccco1)c1ccc(-c2ccccc2)cc1)c1ccccc1 (single isomer, unassigned) [Compound 23S]
- IC50 ([1]; IC50 against SARS-CoV-2 M^pro): > 10 µM
- IC50 ([1]; SARS-CoV-2 M^pro IC50 (μM)): > 10 µM

SMILES: C[C@H](NC(=O)[C@H](c1cccnc1)N(C(=O)C(Cl)(Br)Br)c1ccc(-c2ccccc2)cc1)c1ccccc1 [Jun9-89-4S, N-([1,1′-biphenyl]-4-yl)-2,2-dibromo-2-chloro-N-((S)-2-oxo-2-(((S)-1-phenylethyl)amino)-1-(pyridin-3-yl)ethyl)acetamide]
- IC50 [1, 6]: 9.04 µM

SMILES: C=C(Cl)C(=O)N(c1ccc(-c2ccccc2)cc1)C(C(=O)N[C@@H](C)c1ccccc1)c1cccnc1 (stereo partly drawn) [Jun10-38-2, N-{[1,1′-biphenyl]-4-yl}-2-chloro-N-({[(1S)-1-phenylethyl]carbamoyl}(pyridin-3-yl)methyl)prop-2-enamide]
- IC50 [1, 6]: 4.22 µM

SMILES: C[C@H](NC(=O)C(c1cccnc1)N(C(=O)c1ccco1)c1ccc(-c2cccs2)cc1)c1ccccc1 (stereo partly drawn) [Jun8-91-4]
- IC50 [1, 10]: 14.6 µM

SMILES: C[C@H](NC(=O)C(c1cccnc1)N(C(=O)c1ccco1)c1ccc(C(C)(C)C)cc1)c1ccccc1 (stereo partly drawn) [Jun8-56-1]
- IC50 [1, 5]: 5.7 µM
- EC50 [2, 8]: 17.2 µM

SMILES: C[C@H](NC(=O)C(c1cccnc1)N(C(=O)c1ccco1)c1ccc(-c2ccccc2)cc1)c1ccccc1 (stereo partly drawn) [Jun8-76-3]
- IC50 ([1]; IC50 against SARS-CoV-2 M^pro): < 3 µM
- IC50 [1, 10]: 0.31 µM
- IC50 ([1]; SARS-CoV-2 M^pro IC50 (μM)): 0.31 ± 0.13 µM
- EC50 [2, 7]: 1.61 ± 0.29 µM
- EC50 [2, 8]: 1.83 µM
- EC50 [2, 9]: 0.82 to 4.54 µM
- CC50 at 5 days ([3]; Vero E6 Cytotoxicity CC50 (μM)): > 200 µM
- CC50 [4]: > 100 µM

SMILES: O=C(NCC(c1ccccc1)c1ccccc1)C(c1cccnc1)N(C(=O)c1ccco1)c1ccc(-c2ccccc2)cc1 (stereo not drawn) [Compound 39]
- IC50 ([1]; IC50 against SARS-CoV-2 M^pro): < 5 µM
- CC50 [4]: > 100 µM

SMILES: O=C(NC1CCCCC1)C(c1cccnc1)N(C(=O)c1ccco1)c1ccc(-c2ccccc2)cc1 (stereo not drawn) [Jun9-3-3]
- IC50 [1, 5]: 2.68 µM

SMILES: CC(C)(C)c1ccc(N(C(=O)c2ccco2)C(C(=O)NC2CC2)c2cccnc2)cc1 (stereo not drawn) [Jun8-58-2]
- IC50 [1, 5]: 3.86 µM

SMILES: C[C@H](NC(=O)C(c1cccnc1)N(C(=O)c1ccco1)c1ccc(-c2cnn(C)c2)cc1)c1ccccc1 (stereo partly drawn) [Jun8-91-6]
- IC50 [1, 10]: 37.3 µM

SMILES: CC(C)(C)c1ccc(N(C(=O)c2ccco2)C(C(=O)Nc2ccc(F)cc2)c2cccnc2)cc1 (stereo not drawn) [Jun9-88-3]
- IC50 [1, 5]: 7.81 µM

SMILES: C[C@H](NC(=O)C(c1cccnc1)N(C(=O)c1ccno1)c1ccc(-c2ccccc2)cc1)c1ccccc1 (stereo partly drawn) [Compound 25]
- IC50 [1, 6]: 2.47 ± 0.27 µM
- CC50 [4]: > 100 µM

SMILES: C[C@H](NC(=O)C(c1cccnc1)N(C(=O)c1cnco1)c1ccc(-c2ccccc2)cc1)c1ccccc1 (stereo partly drawn) [Jun8-92-2]
- IC50 [1, 5]: 4.99 µM

SMILES: CC(C)(C)NC(=O)C(c1cnccn1)N(C(=O)c1ccco1)c1ccc(C(C)(C)C)cc1 (stereo not drawn) [Compound 27]
- CC50 [4]: > 100 µM

SMILES: C[C@H](NC(=O)C(c1cccnc1)N(C(=O)c1ccco1)c1ccc(-c2ccccn2)cc1)c1ccccc1 (stereo partly drawn) [Jun9-6-4]
- IC50 [1, 5]: 1.81 µM

SMILES: C[C@H](NC(=O)[C@H](c1cccnc1)N(C(=O)C(Br)Br)c1ccc(-c2ccccc2)cc1)c1ccccc1 [Jun9-89-2S, N-([1,1′-biphenyl]-4-yl)-2,2-dibromo-N-((S)-2-oxo-2-(((S)-1-phenylethyl)amino)-1-(pyridin-3-yl)ethyl)acetamide]
- IC50 ([1]; IC50 against SARS-CoV-2 M^pro): 2.44 µM
- CC50 at 5 days ([3]; CC50 in Vero E6 cells): 4.57 µM

SMILES: CC(C)(C)NC(=O)C(c1cnccn1)N(C(=O)c1ccco1)c1ccc(C(C)(C)C)cc1 (stereo not drawn) [Jun9-17-2]
- IC50 [1, 5]: 4.93 µM

SMILES: C[C@H](NC(=O)C(c1cccnc1)N(C(=O)c1ccco1)c1ccc(OC(C)(C)C)cc1)c1ccccc1 (stereo partly drawn) [Jun9-5-4]
- IC50 [1, 5]: 21.9 µM

SMILES: O=C(NC1CCCC1)C(c1cccnc1)N(C(=O)c1c[nH]cn1)c1ccc(-c2ccccc2)cc1 (stereo not drawn) [Jun9-3-5]
- IC50 [1, 5]: 7.27 µM

SMILES: CC(C)(C)c1ccc(N(C(=O)c2ccco2)C(C(=O)NCn2nnc3ccccc32)c2cccnc2)cc1 (stereo not drawn) [Jun8-74-1]
- IC50 [1, 5]: 8.13 µM

SMILES: C[C@H](NC(=O)C(c1cccnc1)N(C(=O)C(Cl)(Cl)Br)c1ccc(-c2ccccc2)cc1)c1ccccc1 (stereo partly drawn) [Jun9-89-3, N-([1,1′-biphenyl]-4-yl)-2-bromo-2,2-dichloro-N-(2-oxo-2-(((S)-1-phenylethyl)amino)-1-(pyridin-3-yl)ethyl)acetamide]
- IC50 [1, 6]: 1.2 µM
- CC50 at 5 days ([3]; CC50 in Vero E6 cells): 32.4 µM

SMILES: C[C@H](NC(=O)[C@H](c1cccnc1)N(C(=O)C(Cl)Cl)c1ccc(-c2ccccc2)cc1)c1ccccc1 [Jun9-62-2S, N-([1,1′-biphenyl]-4-yl)-2,2-dichloro-N-((S)-2-oxo-2-(((S)-1-phenylethyl)amino)-1-(pyridin-3-yl)ethyl)acetamide]
- IC50 ([1]; IC50 against SARS-CoV-2 M^pro): > 20 µM

SMILES: C[C@@H](CCc1ccccc1)NC(=O)[C@H](c1cccnc1)N(C(=O)C(Cl)Cl)c1ccc(-c2ccccc2)cc1 [Jun9-90-4S, N-([1,1′-biphenyl]-4-yl)-2,2-dichloro-N-((S)-2-oxo-2-(((S)-4-phenylbutan-2-yl)amino)-1-(pyridin-3-yl)ethyl)acetamide]
- IC50 ([1]; IC50 against SARS-CoV-2 M^pro): > 20 µM

SMILES: O=C(NC1CCCCC1)C(c1cccnc1)N(C(=O)c1c[nH]cn1)c1ccc(-c2ccccc2)cc1 (stereo not drawn) [Jun9-4-2]
- IC50 [1, 5]: 5.82 µM

SMILES: CC(C)(C)c1ccc(N(C(=O)c2ccco2)C(C(=O)NC2CCCC2)c2cccnc2)cc1 (stereo not drawn) [Jun8-88-2]
- IC50 [1, 5]: 2.51 µM
- EC50 [2, 8]: 12.9 µM

SMILES: C[C@H](NC(=O)C(c1cccnc1)N(C(=O)c1ccco1)c1ccc(N2CCCCC2)cc1)c1ccccc1 (stereo partly drawn) [Jun8-97-1]
- IC50 [1, 5]: 5.46 µM

SMILES: C[C@H](NC(=O)C(c1cccnc1)N(C(=O)c1ccno1)c1ccc(C2CCCCC2)cc1)c1ccccc1 (stereo partly drawn) [Compound 36]
- IC50 [1, 6]: 0.81 ± 0.24 µM

— US20240083885A1, “COMPOSITIONS AND METHODS FOR INHIBITING M PRO PROTEASE ACTIVITY AND FOR PREVENTING AND TREATING SARS-COV-2 INFECTION” (priority 2020, published 2024)
